Our source for the survival and cells protected values is patent publication US8394362B2, “Gem difluorinated C-glycopeptides, their preparation and their use for the preservation of biological materials and/or in cryosugery” (priority 2004, dated 2013).

The subject of the assay is adult primary skin fibroblasts. In words: Protection of adult primary skin fibroblasts in culture medium. It is filed as cell-based. The note with it: 15 mg/mL, after six days, culture media. Here is the method: This test was extended to adult primary fibroblasts.
For adult fibroblasts, a culture medium (rich in factors) is used,
The concentration of product 15 is 15 mg/mL.

Each structure is given as a SMILES string.

In the case of `C[C@H](NC(=O)[C@H](C)NC(=O)[C@@H](N)CCCCNC(=O)C(F)(F)C1(O)O[C@H](CO)[C@H](O)[C@H](O)[C@H]1O)C(=O)O` (some centres unmarked) [product 15], the survival (3° C.) stood at 100%. Where the note is “15° C.”, this compound came in with a cells protected of 100%.
